Holding throughout (type): functional, cell-based
The subject of experiment [1] is N2a. As to the kind of experiment: Protection against tunicamycin-induced endoplasmic reticulum stress-dependent mouse Neuro2a cells death upto 10 ug/ml after 24 hrs by MTT assay. (Tetrazolium dyes change colour on reduction, which living cells bring about.)
The test system of experiment [2] is N2a. As to the kind of experiment: Protection against thapsigargin-induced endoplasmic reticulum stress-dependent mouse Neuro2a cells death upto 10 ug/ml after 24 hrs by MTT assay.
Experiment [3] concerns N2a. As to the kind of experiment: Protection against thapsigargin-induced endoplasmic reticulum stress-dependent mouse Neuro2a cells death after 24 hrs by MTT assay.
In experiment [4] the test system is N2a. As to the kind of experiment: Protection against tunicamycin-induced endoplasmic reticulum stress-dependent mouse Neuro2a cells death after 24 hrs by MTT assay.

Active and inactive are the calls of the source. The rule behind the calls is not given here.

Regarding `COc1cc2c(c(O)c1C/C=C(\C)CCC=C(C)C)C(=O)OC2`, the result in the experiment on N2a [1] and in the experiment with N2a [2] was inactive.
As for `COc1cc2c(c3c1CCC(C)(CC(=O)C=C(C)C)O3)COC2=O` (racemic), the outcome in the experiment with N2a [1] and in the experiment with N2a [2] was inactive.
Turning to `CCCCCCCCCCCCCCCC(=O)OCc1cc(OC)c2c(c1C=O)O[C@@](C)(CC(=O)C=C(C)C)[C@@H](O)C2` (relative stereo), the Activity result with N2a [3] and in the experiment with N2a [4] was “Dose-dependent effect” in each case.

These data come from ChEMBL document CHEMBL1142502, “An endoplasmic reticulum (ER) stress-suppressive compound and its analogues from the mushroom Hericium erinaceum” (Bioorg Med Chem, 2008).
